Laboratory results published in ChEMBL document CHEMBL1909046, “DrugMatrix in vitro pharmacology data”.

Tests used:
[1] = target: T1, Interstitial collagenase (Homo sapiens, UniProt P03956); test: biochemical; type: tissue-based, Rheumatoid synovial fibroblasts;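 also: MMP-1 enzyme inhibition assay using a peptide substrate; in other assays of this panel Not Active means under 50% inhibition at 10 µM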
T1 sequence (P03956 whole entry): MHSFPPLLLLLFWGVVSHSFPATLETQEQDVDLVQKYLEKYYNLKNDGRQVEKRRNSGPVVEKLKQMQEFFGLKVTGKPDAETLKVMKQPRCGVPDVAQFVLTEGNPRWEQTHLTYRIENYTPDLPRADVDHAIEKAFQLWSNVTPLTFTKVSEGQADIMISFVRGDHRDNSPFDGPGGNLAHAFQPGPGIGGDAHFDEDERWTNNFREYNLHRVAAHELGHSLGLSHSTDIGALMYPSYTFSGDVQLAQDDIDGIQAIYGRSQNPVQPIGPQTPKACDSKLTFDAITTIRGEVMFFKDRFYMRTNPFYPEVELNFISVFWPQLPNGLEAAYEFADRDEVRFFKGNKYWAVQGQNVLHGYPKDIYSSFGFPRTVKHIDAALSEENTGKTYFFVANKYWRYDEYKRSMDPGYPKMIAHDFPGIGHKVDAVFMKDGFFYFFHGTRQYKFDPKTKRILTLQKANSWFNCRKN

[2] = DRUGMATRIX: Purinergic P2X radioligand binding (ligand: [3H] alpha, beta-Methylene-ATP); type: cell membranes, Oryctolagus cuniculus, New Zealand albino, Urinary bladder, Membrane; conditions: Not Active = under 50% inhibition at 10 µM
[3] = target: 5-hydroxytryptamine receptor 4 (Cavia porcellus, UniProt O70528); type: cell membranes, Dunkin-Hartley, Striatum, Membrane; also: in other assays of this panel Not Active means under 50% inhibition at 10 µM
Chain of 5-hydroxytryptamine receptor 4 (O70528 whole entry): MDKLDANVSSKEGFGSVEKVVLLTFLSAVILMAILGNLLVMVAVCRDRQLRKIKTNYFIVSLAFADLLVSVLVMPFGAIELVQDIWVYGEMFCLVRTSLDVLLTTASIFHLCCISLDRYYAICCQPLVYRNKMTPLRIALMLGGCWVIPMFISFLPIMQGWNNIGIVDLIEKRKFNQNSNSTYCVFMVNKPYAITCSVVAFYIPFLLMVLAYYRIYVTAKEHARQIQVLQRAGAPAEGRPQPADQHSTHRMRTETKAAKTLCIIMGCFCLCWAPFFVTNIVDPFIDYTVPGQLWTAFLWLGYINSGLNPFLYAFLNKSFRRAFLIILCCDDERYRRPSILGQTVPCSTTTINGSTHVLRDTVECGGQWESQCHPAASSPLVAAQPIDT

[4] = DRUGMATRIX: Imidazoline I2, Central radioligand binding (ligand: [3H] Idazoxan); type: cell membranes, Rattus norvegicus, Wistar, Cerebral cortex, Membrane; conditions: Not Active = under 50% inhibition at 10 µM
[5] = DRUGMATRIX: Glutamate, AMPA radioligand binding (ligand: [3H] AMPA); type: cell membranes, Rattus norvegicus, Wistar, Cerebral cortex, Membrane; conditions: Not Active = under 50% inhibition at 10 µM
[6] = target: T2, Cysteinyl leukotriene receptor 1 (Homo sapiens, UniProt Q9Y271); type: cell membranes, Membrane; conditions: cho-k1; also: in other assays of this panel Not Active means under 50% inhibition at 10 µM
T2 sequence (Q9Y271 whole entry): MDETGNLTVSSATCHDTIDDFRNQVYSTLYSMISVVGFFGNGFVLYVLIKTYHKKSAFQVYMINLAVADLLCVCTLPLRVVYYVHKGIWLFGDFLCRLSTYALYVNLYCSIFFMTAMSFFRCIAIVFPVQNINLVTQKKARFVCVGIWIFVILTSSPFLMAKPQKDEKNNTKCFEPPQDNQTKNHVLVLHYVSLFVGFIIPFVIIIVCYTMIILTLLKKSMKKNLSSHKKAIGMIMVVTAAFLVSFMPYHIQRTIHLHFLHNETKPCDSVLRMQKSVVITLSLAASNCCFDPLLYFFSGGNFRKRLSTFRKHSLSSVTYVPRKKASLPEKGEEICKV

[7] = DRUGMATRIX: Glutamate, NMDA, Agonism radioligand binding (ligand: [3H] CGP-39653); type: cell membranes, Rattus norvegicus, Wistar, Cerebral cortex, Membrane; conditions: Not Active = under 50% inhibition at 10 µM

O=C(c1ccccc1C(F)(F)F)N1CCC(Cc2ccccc2)CC1
Not Active: IC50 [1] | IC50 [2] | Ki [2] | IC50 [3] | IC50 [4] | Ki [4] | IC50 [5] | Ki [5] | IC50 [6] | IC50 [7] | Ki [7]

O=C/C=C/c1ccccc1
Not Active: IC50 [1] | IC50 [2] | Ki [2] | IC50 [3] | IC50 [4] | Ki [4] | IC50 [5] | Ki [5] | IC50 [6] | IC50 [7] | Ki [7]

Nc1ccc2c3c(cccc13)C(=O)NC2=O
Not Active: IC50 [1] | IC50 [2] | Ki [2] | IC50 [3] | IC50 [4] | Ki [4] | IC50 [5] | Ki [5] | IC50 [6] | IC50 [7] | Ki [7]

COc1ccc(C(=O)N2CCCC2=O)cc1
Not Active: IC50 [1] | IC50 [2] | Ki [2] | IC50 [3] | IC50 [4] | Ki [4] | IC50 [5] | Ki [5] | IC50 [6] | IC50 [7] | Ki [7]

O=c1cnn([C@@H]2O[C@H](CO)[C@@H](O)[C@H]2O)c(=O)[nH]1 [6-AZAURIDINE]
Not Active: IC50 [1] | IC50 [2] | Ki [2] | IC50 [3] | IC50 [4] | Ki [4] | IC50 [5] | Ki [5] | IC50 [6] | IC50 [7] | Ki [7]

CC[C@H](C)[C@H]1O[C@]2(C=C[C@@H]1C)C[C@@H]1C[C@@H](C/C=C(\C)[C@@H](O[C@H]3C[C@H](OC)[C@@H](O[C@H]4C[C@H](OC)[C@@H](O)[C@H](C)O4)[C@H](C)O3)[C@@H](C)/C=C/C=C3\CO[C@@H]4[C@H](O)C(C)=C[C@@H](C(=O)O1)[C@]34O)O2.CO[C@H]1C[C@H](O[C@H]2[C@H](C)O[C@@H](O[C@@H]3/C(C)=C/C[C@@H]4C[C@@H](C[C@]5(C=C[C@H](C)[C@@H](C(C)C)O5)O4)OC(=O)[C@@H]4C=C(C)[C@@H](O)[C@H]5OC/C(=C\C=C\[C@@H]3C)[C@]54O)C[C@@H]2OC)O[C@@H](C)[C@@H]1O [ABAMECTIN]
Not Active: IC50 [1] | IC50 [2] | Ki [2] | IC50 [3] | IC50 [4] | Ki [4] | IC50 [5] | Ki [5] | IC50 [6] | IC50 [7] | Ki [7]

NCCCC(O)(P(=O)(O)O)P(=O)(O)O [ALENDRONIC ACID]
Not Active: IC50 [1] | IC50 [2] | Ki [2] | IC50 [3] | IC50 [4] | Ki [4] | IC50 [5] | Ki [5] | IC50 [6] | IC50 [7] | Ki [7]

Cc1nnc2n1-c1ccc(Cl)cc1C(c1ccccc1)=NC2 [ALPRAZOLAM]
Not Active: IC50 [1] | IC50 [2] | Ki [2] | IC50 [3] | IC50 [4] | Ki [4] | IC50 [5] | Ki [5] | IC50 [6] | IC50 [7] | Ki [7]

Cn1c(=O)c2[nH]cnc2n(C)c1=O.Cn1c(=O)c2[nH]cnc2n(C)c1=O.NCCN [AMINOPHYLLINE]
Not Active: IC50 [1] | IC50 [2] | Ki [2] | IC50 [3] | IC50 [4] | Ki [4] | IC50 [5] | Ki [5] | IC50 [6] | IC50 [7] | Ki [7]

CCC1(CCC(C)C)C(=O)NC(=O)NC1=O [AMOBARBITAL]
Not Active: IC50 [1] | IC50 [2] | Ki [2] | IC50 [3] | IC50 [4] | Ki [4] | IC50 [5] | Ki [5] | IC50 [6] | IC50 [7] | Ki [7]

CC1(C)S[C@@H]2[C@H](NC(=O)[C@H](N)c3ccccc3)C(=O)N2[C@H]1C(=O)O [AMPICILLIN]
Not Active: IC50 [1] | IC50 [2] | Ki [2] | IC50 [3] | IC50 [4] | Ki [4] | IC50 [5] | Ki [5] | IC50 [6] | IC50 [7] | Ki [7]

COc1ccc(C2C(=O)c3ccccc3C2=O)cc1 [ANISINDIONE]
Not Active: IC50 [1] | IC50 [2] | Ki [2] | IC50 [3] | IC50 [4] | Ki [4] | IC50 [5] | Ki [5] | IC50 [6] | IC50 [7] | Ki [7]

O=C1O[C@H]([C@@H](O)CO)C(O)=C1O [ASCORBIC ACID]
Not Active: IC50 [1] | IC50 [2] | Ki [2] | IC50 [3] | IC50 [4] | Ki [4] | IC50 [5] | Ki [5] | IC50 [6] | IC50 [7] | Ki [7]

CN1[C@@H]2CC[C@H]1C[C@@H](OC(=O)C(CO)c1ccccc1)C2 (stereo not given in full) [ATROPINE]
Not Active: IC50 [1] | IC50 [2] | Ki [2] | IC50 [3] | IC50 [4] | Ki [4] | IC50 [5] | Ki [5] | IC50 [6] | IC50 [7] | Ki [7]

CC(C(=O)O)c1ccc2oc(-c3ccc(Cl)cc3)nc2c1 (stereo not given) [BENOXAPROFEN]
Not Active: IC50 [1] | IC50 [2] | Ki [2] | IC50 [3] | IC50 [4] | Ki [4] | IC50 [5] | Ki [5] | IC50 [6] | IC50 [7] | Ki [7]

COc1cc(N)c(Cl)cc1C(=O)NC1CCN(CCCOc2ccc(F)cc2)CC1OC (stereo not given) [CISAPRIDE]
Not Active: IC50 [1] | IC50 [2] | Ki [2] | IC50 [4] | Ki [4] | IC50 [5] | Ki [5] | IC50 [6] | IC50 [7] | Ki [7]
